Test results as given in patent US20130096119A1, “Isoquinolin-3-Ylurea Derivatives” (priority 2010, published 2013).
≈ marks a conversion by molar mass, not a printed value.

What follows are compounds tested on S. pneumoniae ATCC 49619 (assay: Minimal inhibitory concentration (MIC) by microdilution method (CLSI M7-A7)). Conditions: Streptococcus pneumoniae, ATCC49619, cation-adjusted Mueller-Hinton Broth supplemented with 3% (v/v) lysed horse blood.
Assay type: cell-based, Streptococcus pneumoniae
Protocol: Minimal inhibitory concentrations (MICs; mg/l) were determined in cation-adjusted Mueller-Hinton Broth (supplemented with 3% (v/v) lysed horse blood for testing Streptococcus pneumoniae) by a microdilution method following the description given in “Methods for Dilution Antimicrobial Susceptibility Tests for Bacteria that Grow Aerobically”, Approved standard, 7th ed., Clinical and Laboratory Standards Institute (CLSI) Document M7-A7, Wayne, Pa., USA, 2006.

| Compound | MIC |
| --- | --- |
| CCNC(=O)Nc1cc2cc(-c3ccccc3C)cc(C)c2cn1 [Example 105, 1-ethyl-3-(8-methyl-6-o-tolyl-isoquinolin-3-yl)-urea] | 8 µg/mL (≈ 25 µM) |
| CCNC(=O)Nc1cc2c(F)ccc(Cc3ccccc3)c2cn1 [Example 46, 1-(8-benzyl-5-fluoro-isoquinolin-3-yl)-3-ethyl-urea] | 1 µg/mL (≈ 3.09 µM) |
| CCNC(=O)Nc1cc2cc(-c3cccc(C#N)c3)cc(C)c2cn1 [Example 107, 1-[6-(3-cyano-phenyl)-8-methyl-isoquinolin-3-yl]-3-ethyl-urea] | 1 µg/mL (≈ 3.03 µM) |
| CCNC(=O)Nc1cc2cccc(Nc3cccc(C)n3)c2cn1.Cl [Example 155, 1-ethyl-3-[8-(6-methyl-pyridin-2-ylamino)-isoquinolin-3-yl]-urea hydrochloride] | 2 µg/mL |
| CCNC(=O)Nc1cc2c(-c3cccc4cnccc34)ccc(C)c2cn1 [Example 67, 1-ethyl-3-(8-methyl-[5,5′]biisoquinolinyl-3-yl)-urea] | 16 µg/mL (≈ 44.9 µM) |
| CCNC(=O)Nc1cc2cc(NCc3cccc(OC)c3)cc(C)c2cn1.Cl [Example 197, 1-ethyl-3-[6-(3-methoxy-benzylamino)-8-methyl-isoquinolin-3-yl]-urea hydrochloride] | 8 µg/mL |
| CCNC(=O)Nc1cc2c(F)ccc(-c3cccnc3)c2cn1 [Example 215, 1-ethyl-3-(5-fluoro-8-pyridin-3-yl-isoquinolin-3-yl)-urea] | 16 µg/mL (≈ 51.6 µM) |
| CCNC(=O)Nc1cc2cc(NCc3ccc(NC(C)=O)cc3)cc(C)c2cn1 [Example 137, N-(4-{[3-(3-ethyl-ureido)-8-methyl-isoquinolin-6-ylamino]-methyl}-phenyl)-acetamide] | 8 µg/mL (≈ 20.4 µM) |
| CCNC(=O)Nc1cc2cccc(Nc3cnccn3)c2cn1 [Example 148, 1-ethyl-3-[8-(pyrazin-2-ylamino)-isoquinolin-3-yl]-urea] | 2 µg/mL (≈ 6.49 µM) |
| CCNC(=O)Nc1cc2cccc(Nc3ccc(OC)cn3)c2cn1 [Example 181, 1-ethyl-3-[8-(5-methoxy-pyridin-2-ylamino)-isoquinolin-3-yl]-urea] | 8 µg/mL (≈ 23.7 µM) |
| CCNC(=O)Nc1cc2cc(-c3cccc(CN)c3)cc(C)c2cn1 [Example 26, 1-[6-(3-(aminomethyl)-phenyl)-8-methyl-isoquinolin-3-yl]-3-ethyl-urea] | 0.5 µg/mL (≈ 1.5 µM) |
| CCNC(=O)Nc1cc2c(-c3ccncn3)ccc(C)c2cn1 [Example 278, 1-ethyl-3-(8-methyl-5-pyrimidin-4-yl-isoquinolin-3-yl)-urea] | 2 µg/mL (≈ 6.51 µM) |
| CCNC(=O)Nc1cc2cccc(Nc3ccc(C(N)=O)cc3)c2cn1.Cl [Example 252, 4-[3-(3-ethyl-ureido)-isoquinolin-8-ylamino]-benzamide hydrochloride] | 2 µg/mL |
| CCNC(=O)Nc1cc2c(-c3cccc(CN)c3)ccc(C)c2cn1 [Example 11, 1-[5-(3-(aminomethyl)-phenyl)-8-methyl-isoquinolin-3-yl]-3-ethyl-urea] | 2 µg/mL (≈ 5.98 µM) |
| CCNC(=O)Nc1cc2cccc(Nc3ccc(C)cn3)c2cn1.Cl [Example 163, 1-ethyl-3-[8-(5-methyl-pyridin-2-ylamino)-isoquinolin-3-yl]-urea hydrochloride] | 2 µg/mL |
| CCNC(=O)Nc1cc2c(-c3ccncc3)ccc(OC)c2cn1 [Example 125, 1-ethyl-3-(8-methoxy-5-pyridin-4-yl-isoquinolin-3-yl)-urea] | 4 µg/mL (≈ 12.4 µM) |
| CCNC(=O)Nc1cc2cc(NCc3ccc(OC)nc3)cc(C)c2cn1.Cl [Example 196, 1-ethyl-3-{6-[(6-methoxy-pyridin-3-ylmethyl)-amino]-8-methyl-isoquinolin-3-yl}-urea hydrochloride] | 8 µg/mL |
| CCNC(=O)Nc1cc2cc(NCc3ccc(S(=O)(=O)NC)cc3)cc(C)c2cn1 [Example 189, 4-{[3-(3-ethyl-ureido)-8-methyl-isoquinolin-6-ylamino]-methyl}-N-methyl-benzenesulfonamide] | 8 µg/mL (≈ 18.7 µM) |
| CCNC(=O)Nc1cc2c(-c3cc(C)nc(C)c3)ccc(C)c2cn1 [Example 44, 1-[5-(2,6-dimethyl-pyridin-4-yl)-8-methyl-isoquinolin-3-yl]-3-ethyl-urea] | 4 µg/mL (≈ 12 µM) |
| CCNC(=O)Nc1cc2cc(-c3ccc(CO)nc3)cc(C)c2cn1 [Example 101, 1-ethyl-3-[6-(6-hydroxymethyl-pyridin-3-yl)-8-methyl-isoquinolin-3-yl]-urea] | 1 µg/mL (≈ 2.97 µM) |
| CCNC(=O)Nc1cc2cccc(Nc3cccc(CC(=O)NCc4ccccc4)c3)c2cn1.Cl [Example 210, N-benzyl-2-{3-[3-(3-ethyl-ureido)-isoquinolin-8-ylamino]phenyl}-acetamide hydrochloride] | 8 µg/mL |
| CCNC(=O)Nc1cc2c(N3CCOCC3)ccc(Nc3cccnc3)c2cn1 [Example 274, 1-ethyl-3-[5-morpholin-4-yl-8-(pyridin-3-ylamino)-isoquinolin-3-yl]-urea] | 2 µg/mL (≈ 5.1 µM) |

| Compound | MIC |
| --- | --- |
| CCNC(=O)Nc1cc2cccc(Nc3ccc(C(=O)O)cc3)c2cn1 [Example 202, 4-[3-(3-ethyl-ureido)-isoquinolin-8-ylamino]-benzoic acid] | 1 µg/mL (≈ 2.85 µM) |
| CCNC(=O)Nc1cc2c(-c3cncc(F)c3)ccc(C)c2cn1 [Example 9, 1-ethyl-3-[5-(5-fluoro-pyridin-3-yl)-8-methyl-isoquinolin-3-yl]-urea] | 2 µg/mL (≈ 6.17 µM) |
| CCNC(=O)Nc1cc2c(-c3c[nH]cn3)ccc(C)c2cn1.Cl [Example 280, 1-ethyl-3-[5-(1H-imidazol-4-yl)-8-methyl-isoquinolin-3-yl]urea hydrochloride] | 1 µg/mL |
| CCNC(=O)Nc1cc2cccc(Nc3ccc(NC(C)=O)nc3)c2cn1.Cl [Example 161, N-{5-[3-(3-ethyl-ureido)-isoquinolin-8-ylamino]-pyridin-2-yl}-acetamide hydrochloride] | 2 µg/mL |
| CCNC(=O)Nc1cc2c(F)c(-c3cccc(NC(C)=O)c3)cc(-c3cnc(OC)nc3)c2cn1 [Example 114, N-{3-[3-(3-ethyl-ureido)-5-fluoro-8-(2-methoxy-pyrimidin-5-yl)-isoquinolin-6-yl]-phenyl}-acetamide] | 0.5 µg/mL (≈ 1.05 µM) |
| CCNC(=O)Nc1cc2c(Br)ccc(OC)c2cn1 [Example 73, 1-(5-bromo-8-methoxy-isoquinolin-3-yl)-3-ethyl-urea] | 8 µg/mL (≈ 24.7 µM) |
| C=Cc1cc(C)c2cnc(NC(=O)NCC)cc2c1 [Example 216, 1-ethyl-3-(8-methyl-6-vinyl-isoquinolin-3-yl)-urea] | 8 µg/mL (≈ 31.3 µM) |
| CCNC(=O)Nc1cc2c(-c3ccc(NC(=O)OC)cc3)ccc(C)c2cn1 [Example 65, {4-[3-(3-ethyl-ureido)-8-methyl-isoquinolin-5-yl]-phenyl}-carbamic acid methyl ester] | 2 µg/mL (≈ 5.28 µM) |
| CCNC(=O)Nc1cc2c(F)c(-c3ccc(S(N)(=O)=O)cc3)cc(C)c2cn1 [Example 144, 4-[3-(3-ethyl-ureido)-5-fluoro-8-methyl-isoquinolin-6-yl]-benzenesulfonamide] | 0.5 µg/mL (≈ 1.24 µM) |
| CCNC(=O)Nc1cc2c(F)ccc(NCc3ccccc3)c2cn1 [Example 56, 1-(8-benzylamino-5-fluoro-isoquinolin-3-yl)-3-ethyl-urea] | 8 µg/mL (≈ 23.6 µM) |
| CCNC(=O)Nc1cc2c(-c3ccnc(F)c3)ccc(C)c2cn1 [Example 41, 1-ethyl-3-[5-(2-fluoro-pyridin-4-yl)-8-methyl-isoquinolin-3-yl]-urea] | 2 µg/mL (≈ 6.17 µM) |
| CCNC(=O)Nc1cc2cccc(CNc3cccnc3)c2cn1 [Example 190, 1-ethyl-3-[8-(pyridin-3-ylaminomethyl)-isoquinolin-3-yl]-urea] | 1 µg/mL (≈ 3.11 µM) |
| CCNC(=O)Nc1cc2c(F)c(-c3cccc(NC(C)=O)c3)cc(Nc3cccnc3)c2cn1 [Example 234, N-{3-[3-(3-ethyl-ureido)-5-fluoro-8-(pyridin-3-ylamino)-isoquinolin-6-yl]phenyl}-acetamide] | 0.25 µg/mL (≈ 0.545 µM) |
| CCNC(=O)Nc1cc2c(CN(C)C)ccc(Nc3cccc(OC)n3)c2cn1 [Example 273, 1-{5-[(dimethylamino)methyl]-8-[(6-methoxy-pyridin-2-yl)amino]-isoquinolin-3-yl}-3-ethyl-urea] | 4 µg/mL (≈ 10.1 µM) |
| CCNC(=O)Nc1cc2cc(-c3cccc(NC(C)=O)c3)cc(C)c2cn1 [Example 37, N-{3-[3-(3-ethyl-ureido)-8-methyl-isoquinolin-6-yl]-phenyl}-acetamide] | 1 µg/mL (≈ 2.76 µM) |
| CCNC(=O)Nc1cc2c(-c3ccc(C(=O)NC)cc3)ccc(C)c2cn1 [Example 6, 4-[3-(3-ethyl-ureido)-8-methyl-isoquinolin-5-yl]-N-methyl-benzamide] | 0.5 µg/mL (≈ 1.38 µM) |
| CCNC(=O)Nc1cc2c(-c3ccc(S(N)(=O)=O)cc3)ccc(Nc3cccnc3)c2cn1 [Example 230, 4-[3-(3-ethyl-ureido)-8-(pyridin-3-ylamino)-isoquinolin-5-yl]-benzenesulfonamide] | 0.5 µg/mL (≈ 1.08 µM) |
| CCNC(=O)Nc1cc2cc(NCc3cccc(C(=O)OC)c3)cc(C)c2cn1 [Example 126, 3-{[3-(3-ethyl-ureido)-8-methyl-isoquinolin-6-ylamino]-methyl}-benzoic acid methyl ester] | 8 µg/mL (≈ 20.4 µM) |
| CCNC(=O)Nc1cc2c(CNC)ccc(Nc3cccnc3)c2cn1 [Example 270, 1-ethyl-3-{5-[(methylamino)methyl]-8-(pyridin-3-ylamino)-isoquinolin-3-yl}-urea] | 4 µg/mL (≈ 11.4 µM) |
| CCNC(=O)Nc1cc2cc(NCc3cccc(OCCO)c3)cc(C)c2cn1.Cl [Example 129, 1-ethyl-3-{6-[3-(2-hydroxy-ethoxy)-benzylamino]-8-methyl-isoquinolin-3-yl}-urea hydrochloride] | 16 µg/mL |
| CCNC(=O)Nc1cc2cccc(Nc3cncc(OC)c3)c2cn1 [Example 177, 1-ethyl-3-[8-(5-methoxy-pyridin-3-ylamino)-isoquinolin-3-yl]-urea] | 2 µg/mL (≈ 5.93 µM) |

Same assay, conditions: cation-adjusted Mueller-Hinton Broth supplemented with 3% (v/v) lysed horse blood

| Compound | MIC for S. pneumoniae ATCC 49619 |
| --- | --- |
| 1-[8-(2,4-dimethyl-imidazol-1-ylmethyl)-isoquinolin-3-yl]-3-ethyl-urea and 1-[8-(2,5-dimethyl-imidazol-1-ylmethyl)-isoquinolin-3-yl]-3-ethyl-urea [Example 296] | 8 µg/mL |
